Assay results from patent US12076304B2, “Compositions comprising 15-HEPE and methods of treating or preventing hematologic disorders, and/or related diseases” (priority 2020, dated 2024).
Entries after “also recorded” stand apart in the source; their conditions may differ.

Tests used:
Type in all cases: in vivo
UUO mice = assay: UUO mice: body weight, kidney weight, general condition; conditions: n = 8
Procedure: UUO Surgery: On day 0 of the study, UUO surgery was performed on mice under pentobarbital sodium anesthesia. The mouse's hair was first shaved and then abdomen cut open to exteriorize the mouse's left ureter. The ureter was ligated 4-0 nylon sutures at two points. The mouse's peritoneum and skin were then closed with sutures, and the mouse transferred to a clean cage until recovered from the anesthesia. Sham operated mice had their left ureter exposed but not ligated. […]
Animals: Seven-week-old female C57BL/6 mice (i.e., animals) were obtained from Japan SLC, Inc. (Japan) and were housed and fed with a normal diet (CE-2; CLEA Japan, Japan) under controlled conditions. The animals were maintained in a specific-pathogen free (SPF) facility under controlled conditions of temperature (e.g., 23±2° C.), humidity (e.g., 45±10%), lighting (e.g., 12-hour artificial light and dark cycles; light from 8:00 to 20:00) and air exchange. A high pressure was maintained in the experimental room to prevent contamination of the facility. The animals were housed in TPX cages (CLEA Japan) with a maximum of 4 mice per cage. Sterilized Paper-Clean (Japan SLC) was used for bedding and replaced once a week. Sterilized solid normal diet was provided ad libitum, being placed in a metal lid on the top of the cage. Pure water was also provided ad libitum from a water bottle equipped with a rubber stopper and a sipper tube. Water bottles were replaced once a week, cleaned, and sterilized in an autoclave and reused. Mice were identified by ear punch and each cage was labeled with a specific identification code.
Animal Monitoring and Sacrifice: The viability, clinical signs and behavior for the mice were monitored daily. Individual body weight was measured daily before treatment during the treatment period. […] The animals were sacrificed by exsanguination through direct cardiac puncture under isoflurane anesthesia (Pfizer Inc.) at Day 14.

[1] = test system: UUO-induced renal interstitial fibrosis; assay: UUO mice: Sirius red staining of kidney sections, fibrosis area; conditions: for Sirius red-positive area / Sirius red-positive area (%) _Median: UUO mice kidney, Day 14, n = 8; for Sirius red-positive area: mean ± SD; for fibrosis area compared with the Vehicle group: UUO mice
Procedure: Histopathological analysis: To visualize collagen deposition, kidney sections were stained using picro-Sirius red solution (Waldeck, Germany). For quantification of interstitial fibrosis area, bright field images in the corticomedullary region were captured using a digital camera (e.g., DFC295; Leica Microsystems, Germany) at 200-fold magnification, and the positive areas in 5 fields/section were measured using ImageJ software (National Institute of Health, USA).

Alpha-SMA mRNA = assay: UUO mice kidney quantitative RT-PCR, Alpha-SMA
Procedure: (§1) Quantitative RT-PCR: Total ribonucleic acid (RNA) was extracted from kidney samples using RNAiso (Takara Bio, Japan) according to the manufacturer's instructions. One μg of RNA was reverse-transcribed using a reaction mixture containing […] (mM) of magnesium chloride (MgCl2) (F. Hoffmann-La Roche, Switzerland), 40 U RNase inhibitor (Toyobo, Japan), 0.5 mM dNTP (Promega, USA), 6.28 μM random hexamer (Promega), 5× first strand buffer (Promega), 10 mM dithiothreitol (Invitrogen, USA) and 200 U MMLV-RT (Invitrogen) in a final volume of 20 μL. The reaction was carried out for 1 hour at 37° C., followed by 5 minutes at 99° C. Real-time PCR was performed using real-time PCR DICE and TB Green™ Premix Ex Taq™ II (Takara Bio). To calculate the relative […] (mRNA) expression level, the expression of each gene (e.g., α-SMA, TIMP-1, TGF-β and Collagen Type 1) was normalized to that of reference gene 36B4 (gene symbol: Rplp0). Information regarding the PCR-primer sets and the plate layout are described in Tables 1 and 2.

TIMP-1 mRNA = assay: UUO mice kidney quantitative RT-PCR, TIMP-1
Procedure: as §1

TGF-β mRNA = assay: UUO mice kidney quantitative RT-PCR, TGF-β
Procedure: as §1

Collagen Type 1 mRNA = assay: UUO mice kidney quantitative RT-PCR, Collagen Type 1
Procedure: as §1

[2] = 5 mg/kg PO QD Day 0-13, Day 14, mean ± SD
[3] = 50 mg/kg PO QD Day 0-13, Day 14, mean ± SD
[4] = 250 mg/kg PO QD Day 0-13, Day 14, mean ± SD
[5] = 50 mg/kg PO QD Day 0-13, Mann-Whitney U test, trend p<0.1, 50 mg/kg
[6] = 5 mg/kg PO QD Day 0-13, normalized to 36B4, Sham 1.00, mean ± SD
[7] = 50 mg/kg PO QD Day 0-13, normalized to 36B4, Sham 1.00, mean ± SD
[8] = 250 mg/kg PO QD Day 0-13, normalized to 36B4, Sham 1.00, mean ± SD
[9] = 500 mg/kg PO QD Day 0-13, Day 14, mean ± SD
[10] = 500 mg/kg PO QD Day 0-13, normalized to 36B4, Sham 1.00, mean ± SD

Molecule: CCCCCC(O)/C=C/C=C\C/C=C\CCCCCCC(=O)O (stereo not shown) [DS109, 15-HETrE]
- Body Weight (UUO mice; [2]): 19.1 ± 0.9 g
- Left Kidney Weight (UUO mice; [2]): 533 ± 138 mg
- Left Kidney-to-Body Weight Ratio (UUO mice; [2]): 2.79 ± 0.65%
- Right Kidney Weight (UUO mice; [2]): 137 ± 7 mg
- Right Kidney-to-Body Weight Ratio (UUO mice; [2]): 0.71 ± 0.04%
- Body Weight (UUO mice; [3]): 18.6 ± 0.6 g
- Left Kidney Weight (UUO mice; [3]): 523 ± 91 mg
- Left Kidney-to-Body Weight Ratio (UUO mice; [3]): 2.83 ± 0.50%
- Right Kidney Weight (UUO mice; [3]): 135 ± 6 mg
- Right Kidney-to-Body Weight Ratio (UUO mice; [3]): 0.73 ± 0.05%
- Body Weight (UUO mice; [4]): 18.6 ± 0.7 g
- Left Kidney Weight (UUO mice; [4]): 425 ± 105 mg
- Left Kidney-to-Body Weight Ratio (UUO mice; [4]): 2.26 ± 0.53%
- Right Kidney Weight (UUO mice; [4]): 130 ± 13 mg
- Right Kidney-to-Body Weight Ratio (UUO mice; [4]): 0.70 ± 0.05%
- Sirius red-positive area ([1]; 5 mg/kg PO QD Day 0-13): 4.23 ± 1.90%
- Sirius red-positive area (%) _Median ([1]; 5 mg/kg PO QD Day 0-13): 3.22 ± 1.47%
- Sirius red-positive area ([1]; 50 mg/kg PO QD Day 0-13): 3.58 ± 1.04%
- Sirius red-positive area (%) _Median ([1]; 50 mg/kg PO QD Day 0-13): 3.28 ± 1.41%
- Sirius red-positive area ([1]; 250 mg/kg PO QD Day 0-13): 4.71 ± 0.96%
- Sirius red-positive area (%) _Median ([1]; 250 mg/kg PO QD Day 0-13): 3.76 ± 0.81%
- fibrosis area compared with the Vehicle group ([1]; 5 mg/kg PO QD Day 0-13, Mann-Whitney U test, trend p<0.1, 5 mg/kg): tended to decrease; also recorded: reduction trend
- fibrosis area compared with the Vehicle group ([1]; 50 mg/kg PO QD Day 0-13, Bonferroni Multiple Comparison): tended to decrease
- fibrosis area compared with the Vehicle group [1, 5]: tended to decrease; also recorded: reduction trend
- fibrosis area compared with the Vehicle group ([1]; 250 mg/kg PO QD Day 0-13, Mann-Whitney U test, trend p<0.1, 250 mg/kg): tended to decrease; also recorded: reduction trend
- Alpha-SMA relative mRNA expression level (Alpha-SMA mRNA; [6]): 3.87 ± 0.82
- Alpha-SMA relative mRNA expression level (Alpha-SMA mRNA; [7]): 4.61 ± 3.15
- Alpha-SMA relative mRNA expression level (Alpha-SMA mRNA; [8]): 4.85 ± 1.22
- TIMP-1 relative mRNA expression level (TIMP-1 mRNA; [6]): 153.60 ± 37.12
- TIMP-1 relative mRNA expression level (TIMP-1 mRNA; [7]): 167.70 ± 122.60
- TIMP-1 relative mRNA expression level (TIMP-1 mRNA; [8]): 180.90 ± 23.12
- TGF-β relative mRNA expression level (TGF-β mRNA; [6]): 4.29 ± 0.93
- TGF-β relative mRNA expression level (TGF-β mRNA; [7]): 6.01 ± 4.77
- TGF-β relative mRNA expression level (TGF-β mRNA; [8]): 5.48 ± 0.36
- Collagen Type 1 relative mRNA expression level (Collagen Type 1 mRNA; [6]): 10.76 ± 1.45
- Collagen Type 1 relative mRNA expression level (Collagen Type 1 mRNA; [7]): 15.23 ± 11.52
- Collagen Type 1 relative mRNA expression level (Collagen Type 1 mRNA; [8]): 13.88 ± 1.91

Molecule: 15-HEPE [DS102]
- Left Kidney Weight (UUO mice; [3]): 469 ± 60 mg
- Right Kidney Weight (UUO mice; [3]): 133 ± 10 mg
- Left Kidney Weight (UUO mice; [9]): 487 ± 108 mg
- Right Kidney Weight (UUO mice; [9]): 136 ± 6 mg
- Sirius red-positive area ([1]; 50 mg/kg PO QD Day 0-13): 5.01 ± 3.11%
- Sirius red-positive area (%) _Median ([1]; 50 mg/kg PO QD Day 0-13): 4.19 ± 3.33%
- Sirius red-positive area ([1]; 500 mg/kg PO QD Day 0-13): 4.01 ± 1.92%
- Sirius red-positive area (%) _Median ([1]; 500 mg/kg PO QD Day 0-13): 3.08 ± 1.16%
- fibrosis area compared with the Vehicle group [1, 5]: tended to decrease; also recorded: reduction trend
- fibrosis area compared with the Vehicle group ([1]; 500 mg/kg PO QD Day 0-13, Mann-Whitney U test, trend p<0.1, 500 mg/kg): tended to decrease; also recorded: reduction trend
- Alpha-SMA relative mRNA expression level (Alpha-SMA mRNA; [7]): 3.74 ± 0.81
- Alpha-SMA relative mRNA expression level (Alpha-SMA mRNA; [10]): 5.54 ± 1.54
- TIMP-1 relative mRNA expression level (TIMP-1 mRNA; [7]): 138.30 ± 30.39
- TIMP-1 relative mRNA expression level (TIMP-1 mRNA; [10]): 124.80 ± 28.60
- TGF-β relative mRNA expression level (TGF-β mRNA; [7]): 4.31 ± 0.69
- TGF-β relative mRNA expression level (TGF-β mRNA; [10]): 5.37 ± 0.76
- Collagen Type 1 relative mRNA expression level (Collagen Type 1 mRNA; [7]): 11.80 ± 1.78
- Collagen Type 1 relative mRNA expression level (Collagen Type 1 mRNA; [10]): 14.09 ± 2.88
